Assay results published in US20130202698A1 (NANJING SANHOME PHARMACEUTICAL CO., LTD., priority 2005, published 2013).
Read-outs that look alike come from different tables or passages of the source. Marks after values point to notes of the source that are not given here.

Experiments:
[1] = tested on: spontaneous activities of mice; conditions: both, mouse, in vivo, iv
Method: Mice weighing 18-22 g, half male and half female, were placed in the laboratory 24 hours before the test to adapt to the environment. The room temperature was controlled at 24±2° C. Animals were fasted for 8 hours before testing, and then placed in a transparent cage. The number of spontaneous activities of mice was counted by an automatic device (model XZ-4 by Drug Research Institute of China Academy of Medical Sciences). Mice were pre-screened by counting their spontaneous activities for five minutes and unqualified mice were excluded. A total of 110 mice were selected and divided into 11 groups with 10 mice in each group.
Chlorpromazine (3 mg/kg) was used as the positive control. The dose volume was 0.2 mL/10 gram and infusion rate was 0.2 mL/10 seconds.

[2] = tested on: thiosemicarbazide-induced convulsion; test: Anticonvulsant effects on thiosemicarbazide-induced convulsion in mice; assay type: in vivo; conditions: n=10; for Convulsion Latency / Time to Death: Mean ± SD
Method: (§1) Mice are randomized into 4 treatment groups (n=10 with half male and half female): dextro- or levo-ornidazole (dosage 40, 80, 160 mg/kg), vehicle control group (15% propylene glycol in 0.9% sodium chloride, 20 mL/kg) and the positive control group. Animals are treated with known convulsion-inducing agents, followed by the drug or vehicle control given intravenously. The dose volume is 20 mL/kg with an infusion rate of 0.2 mL/10 seconds. The anticonvulsant effects are observed and recorded (see Tables 2-6).

[3] = Acute toxicity in mice (LD50); conditions: mouse, in vivo
[4] = Phase II clinical trial, oral tablets, departments of stomatology, adverse events; assay type: in vivo, human; conditions: human, in vivo, po
Method: (§2) Double-blinded randomized controlled trials were carried out to compare the adverse events of oral levo-ornidazole with racemate treatment groups. Two separate studies were conducted for patients with infections from either department of stomatology or obstetrics/gynecology.

[5] = Phase II clinical trial, oral tablets, departments of obstetrics/gynecology, adverse events; assay type: in vivo, human; conditions: human, in vivo, po
Method: as §2

[6] = tested on: Strychnine-induced convulsion; test: Anticonvulsant effects on Strychnine-induced convulsion in mice; assay type: in vivo; conditions: n=10; for Convulsion Latency: Mean ± SD
Method: as §1

glutamate = test: Effects on excitatory neurotransmitter glutamate levels in mice brain; assay type: in vivo
Text: In another experiment, the effects on excitatory neurotransmitter levels by levo- and dextro-ornidazole were compared.

Purkinje cells = conditions: dog, in vivo, 200 mg/kg
Method: Male and female Beagle dogs were kept in laboratory conditions for 1 week to observe general health conditions. […] Animals were treated at dose of I.V. 200 mg/kg for ornidazole enantiomers, or 10 mL/kg for vehicle control for 2 weeks, then sacrificed for anatomical and pathological examinations.
Quantitative data were analyzed by group test and qualitative data by simplified direct probability method. A 10×10 area under low magnification was used to count cerebellar Purkinje cells.

[7] = rat, in vivo

Cc1ncc([N+](=O)[O-])n1C[C@H](O)CCl [L-ornidazole, S-(−)-ornidazole]
Spontaneous Activities (per 5 min) ([1]; 40 mg/kg, 0.5 h): 89 ± 48 per 5 min | Spontaneous Activities (per 5 min) ([1]; 40 mg/kg, 1 h): 75 ± 40 per 5 min | Spontaneous Activities (per 5 min) ([1]; 40 mg/kg, 2 h): 69 ± 29 per 5 min | Spontaneous Activities (per 5 min) ([1]; 40 mg/kg, 3 h): 63 ± 16 per 5 min | Spontaneous Activities (per 5 min) ([1]; 40 mg/kg, 4 h): 87 ± 43 per 5 min | Spontaneous Activities (per 5 min) ([1]; 80 mg/kg, 0.5 h): 59 ± 27 per 5 min | Spontaneous Activities (per 5 min) ([1]; 80 mg/kg, 1 h): 47 ± 30 per 5 min | Spontaneous Activities (per 5 min) ([1]; 80 mg/kg, 2 h): 44 ± 25 per 5 min | Spontaneous Activities (per 5 min) ([1]; 80 mg/kg, 3 h): 58 ± 36 per 5 min | Spontaneous Activities (per 5 min) ([1]; 80 mg/kg, 4 h): 64 ± 36 per 5 min | Spontaneous Activities (per 5 min) ([1]; 160 mg/kg, 0.5 h): 40 ± 31 per 5 min | Spontaneous Activities (per 5 min) ([1]; 160 mg/kg, 1 h): 45 ± 25 per 5 min | Spontaneous Activities (per 5 min) ([1]; 160 mg/kg, 2 h): 38 ± 18 per 5 min | Spontaneous Activities (per 5 min) ([1]; 160 mg/kg, 3 h): 53 ± 23 per 5 min | Spontaneous Activities (per 5 min) ([1]; 160 mg/kg, 4 h): 58 ± 26 per 5 min | Convulsion Latency ([2]; 40 mg/kg i.v.): 77.1 ± 16.8 min | Time to Death ([2]; 40 mg/kg i.v.): 122.6 ± 29.8 min | Convulsion Latency ([2]; 80 mg/kg i.v.): 85.0 ± 30.9 min | Time to Death ([2]; 80 mg/kg i.v.): 116.7 ± 38.7 min | Mortality Rate ([2]; 160 mg/kg i.v.): 9/10^## | Rate of Convulsion ([2]; 160 mg/kg i.v.): 9/10^## | LD50 ([3]; intravenous injection): 332 mg/kg | LD50 ([3]; ip, intraperitoneal injection): 1380 mg/kg | LD50 ([3]; oral gavage): 1070 mg/kg | Bloating, # of Patients with AE [4]: 0 | Bloating, Incidence (%) [4]: 0.00% | Constipation, # of Patients with AE [4]: 1 | Constipation, Incidence (%) [4]: 0.72% | Drowsy, # of Patients with AE [4]: 0 | Drowsy, Incidence (%) [4]: 0.00% | Dry mouth, # of Patients with AE [4]: 0 | Dry mouth, Incidence (%) [4]: 0.00% | Headache, # of Patients with AE [4]: 0 | Headache, Incidence (%) [4]: 0.00% | Hypersomnia, # of Patients with AE [4]: 0 | Hypersomnia, Incidence (%) [4]: 0.00^# % | Hypodynamia, # of Patients with AE [4]: 0 | Hypodynamia, Incidence (%) [4]: 0.00% | Loss of appetite, # of Patients with AE [4]: 0 | Loss of appetite, Incidence (%) [4]: 0.00% | Nausea, # of Patients with AE [4]: 4 | Nausea, Incidence (%) [4]: 2.88% | Palpitation, # of Patients with AE [4]: 0 | Palpitation, Incidence (%) [4]: 0.00% | Patients with adverse events (total) [4]: 5 patients | Pruritus, # of Patients with AE [4]: 0 | Pruritus, Incidence (%) [4]: 0.00% | Rash, # of Patients with AE [4]: 0 | Rash, Incidence (%) [4]: 0.00% | Sourregurgitation, # of Patients with AE [4]: 0 | Sourregurgitation, Incidence (%) [4]: 0.00% | Stomach discomfort, # of Patients with AE [4]: 0 | Stomach discomfort, Incidence (%) [4]: 0.00^# % | Stupor, # of Patients with AE [4]: 0 | Stupor, Incidence (%) [4]: 0.00% | Total incidence rate of adverse events [4]: 3.60% | Vertigo, # of Patients with AE [4]: 0 | Vertigo, Incidence (%) [4]: 0.00% | Vomiting, # of Patients with AE [4]: 0 | Vomiting, Incidence (%) [4]: 0.00% | Abdominal pain, # of Patients with AE [5]: 0 | Abdominal pain, Incidence (%) [5]: 0.00% | Appetite drop, # of Patients with AE [5]: 0 | Appetite drop, Incidence (%) [5]: 0.00% | Bitter taste, # of Patients with AE [5]: 0 | Bitter taste, Incidence (%) [5]: 0.00% | Bloating, # of Patients with AE [5]: 0 | Bloating, Incidence (%) [5]: 0.00% | Blurred vision, # of Patients with AE [5]: 0 | Blurred vision, Incidence (%) [5]: 0.00% | Breast tenderness, # of Patients with AE [5]: 0 | Breast tenderness, Incidence (%) [5]: 0.00% | Chest tightness, # of Patients with AE [5]: 0 | Chest tightness, Incidence (%) [5]: 0.00% | Dazzle, # of Patients with AE [5]: 0 | Dazzle, Incidence (%) [5]: 0.00% | Diarrhea, # of Patients with AE [5]: 0 | Diarrhea, Incidence (%) [5]: 0.00% | Dizziness, # of Patients with AE [5]: 0 | Dizziness, Incidence (%) [5]: 0.00% | Dry mouth, # of Patients with AE [5]: 0 | Dry mouth, Incidence (%) [5]: 0.00% | Headache, # of Patients with AE [5]: 0 | Headache, Incidence (%) [5]: 0.00% | Hypersomnia, # of Patients with AE [5]: 0 | Hypersomnia, Incidence (%) [5]: 0.00^## % | Hypodynamia, # of Patients with AE [5]: 0 | Hypodynamia, Incidence (%) [5]: 0.00% | Nausea, # of Patients with AE [5]: 1 | Nausea, Incidence (%) [5]: 0.70^# % | Oral malodor, # of Patients with AE [5]: 1 | Oral malodor, Incidence (%) [5]: 0.70% | Patients with adverse events (total) [5]: 5 patients | Rash, # of Patients with AE [5]: 1 | Rash, Incidence (%) [5]: 0.70% | Stomach ache, # of Patients with AE [5]: 1 | Stomach ache, Incidence (%) [5]: 0.70% | Stomach discomfort, # of Patients with AE [5]: 1 | Stomach discomfort, Incidence (%) [5]: 0.70% | Total incidence rate of adverse events [5]: 3.50% | Vertigo, # of Patients with AE [5]: 0 | Vertigo, Incidence (%) [5]: 0.00^## % | Vomiting, # of Patients with AE [5]: 0 | Vomiting, Incidence (%) [5]: 0.00% | Plasma protein binding, levo- vs dextro-ornidazole (plasma protein): Similar | Convulsion Latency ([6]; 40 mg/kg i.v.): 5.3 ± 2.3 min | Mortality Rate ([6]; 40 mg/kg i.v.): 10/10 | Convulsion Latency ([6]; 80 mg/kg i.v.): 7.5 ± 3.3 min | Mortality Rate ([6]; 80 mg/kg i.v.): 10/10 | Convulsion Latency ([6]; 160 mg/kg i.v.): 8.6 ± 2.3 min | Mortality Rate ([6]; 160 mg/kg i.v.): 6/10^# | Effect on glutamate levels in cerebrum and cerebellum (glutamate; FIG. 4, listed as Levo-ornidazole): little effect | Effect on glutamate levels in cerebrum and cerebellum (glutamate; FIG. 4, listed as levo-ornidazole): little effects | Purkinje cell morphology (Purkinje cells): did not cause significant change | Distribution in different region of brain, levo- vs dextro-ornidazole [7]: Similar
